Legend:
LNX2-3 = test: Holdup assay, LNX2-3; type: binding, human
GORASP2-1 = GORASP2-1 (Homo sapiens, UniProt Q9H8Y8); test: Holdup assay, GORASP2-1; type: binding; conditions: for BI: GORASP2-1
APBA2-2 = test: Holdup assay, APBA2-2; type: binding, human
DFNB31-2 = test: Holdup assay, DFNB31-2; type: binding, human
FRMPD2-3 = test: Holdup assay, FRMPD2-3; type: binding, human
DLG1 PDZ 2 = molecular target: T1, DLG1 PDZ 2 (Homo sapiens, UniProt Q12959); test: Holdup assay, DLG1-2; type: binding; conditions: for BI: DLG1-2
T1 construct: made in house; host or cells: E. coli
T1 sequence (Q12959 319-405 limits assumed): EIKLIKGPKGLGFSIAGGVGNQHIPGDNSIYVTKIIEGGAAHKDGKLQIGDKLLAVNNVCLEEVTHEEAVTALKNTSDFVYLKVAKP
Experimental: (§1) The holdup assay was performed on a Tecan freedom Evo200 robot with 384-well plates in singlicate for the three 11-mer PTEN variants and the 13-mer PTEN peptide as described in [31, 32]. Briefly, prior to interaction assay, 2.5 μL of streptavidin resin was saturated in each well with 20 μL of biotinylated PBM peptides (42 μM) and then washed twice with an excess of free biotin, while the reference resin was incubated only with biotin. Right before the holdup experiment, the PDZ library was spiked with an internal standard of lysozyme. Then, the biotin- or PBM-saturated resin was incubated, each in a distinct well of a 384-well plate, with complete cell lysates diluted so that the concentration of the tag-PDZ present in the crude extract is adjusted at 4 μM. After a sufficient time to reach complex equilibrium (15 min.), a fast and mild filtration step is performed and the tag-PDZ concentrations were measured by capillary electrophoresis instrument (LabChip GXII, PerkinElmer, Massachusets, USA). Standard markers were used to convert migration time into molecular weight on the LabChip software and inappropriate molecular weight markers were corrected or excluded.
(§2) For filtered data, the BI was extracted with the following equation (Eq 1) that estimates the depleted fraction after superimposition of the sample and reference electropherograms: BI=Iref−Ilig/Iref (1) where Iref and Ilig are the intensities of the tag-PDZ peaks measured, for each PDZ domain/PBM peptide interaction pair, in the biotin reference and the PBM electropherograms, respectively.
(§3) BIs were transformed into dissociation constants (KD) using the following formula: KD=([PDZtot]−BI·[PDZtot])·([PBMtot]−BI·[PDZtot])/BI·[PDZtot] (2) where [PDZtot] and [PBMtot] correspond to the total concentrations of the PDZ domain (usually around 4 μM) and the PBM peptide used during the assay. Since the PBMtot concentration in the resin during the holdup assay parameter may differ from one peptide to another and remains unknown, it is impossible to directly convert BI values into KD constants. We systematically determined the KD constants for a subset of PDZ/PBM pairs by competitive FP. […] For each PBM, the average peptide concentration was calculated after outlier rejection based on the absolute distances from the median as compared to three times the standard deviation (3σ rule), with never more than 2 values rejected.

LIN7B-1 = test: Holdup assay, LIN7B-1; type: binding, human
MAGI1 PDZ 2 = molecular target: T2, MAGI1 PDZ 2 (Homo sapiens, UniProt Q96QZ7); test: Holdup assay, MAGI1-2; type: binding
T2 construct: made in house; host or cells: E. coli
T2 sequence (Q96QZ7 472-554 limits assumed): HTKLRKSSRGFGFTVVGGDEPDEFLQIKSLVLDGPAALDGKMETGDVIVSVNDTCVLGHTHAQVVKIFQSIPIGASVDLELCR
Experimental: as §1, §2
BIs were transformed into dissociation constants (KD) using the following formula: KD=([PDZtot]−BI·[PDZtot])·([PBMtot]−BI·[PDZtot])/BI·[PDZtot] […] We systematically determined the KD constants for a subset of PDZ/PBM pairs by competitive FP. […] For each PBM, the average peptide concentration was calculated after outlier rejection based on the absolute distances from the median as compared to three times the standard deviation (3σ rule), with never more than 2 values rejected.

DLG2-2 = DLG2-2 (Homo sapiens, UniProt Q15700); test: Holdup assay, DLG2-2; type: binding
DLG2-2, sequence (Q15700 193-280): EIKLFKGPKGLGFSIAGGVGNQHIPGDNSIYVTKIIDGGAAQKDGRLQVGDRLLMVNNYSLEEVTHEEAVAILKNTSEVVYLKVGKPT

ARHGAP23-1 = test: Holdup assay, ARHGAP23-1; type: binding, human
LIMK1-1 = test: Holdup assay, LIMK1-1; type: binding, human
INTU-1 = test: Holdup assay, INTU-1; type: binding, human
GRID2IP-1 = test: Holdup assay, GRID2IP-1; type: binding, human
APBA3-1 = test: Holdup assay, APBA3-1; type: binding, human
SDCBP PDZ 1 = molecular target: T3, SDCBP PDZ 1 (Homo sapiens, UniProt O00560); test: Holdup assay, SDCBP-1; type: binding; conditions: PDZ domain SDCBP-1
T3 construct: made in house; host or cells: E. coli
T3 sequence (O00560 114-193 limits assumed): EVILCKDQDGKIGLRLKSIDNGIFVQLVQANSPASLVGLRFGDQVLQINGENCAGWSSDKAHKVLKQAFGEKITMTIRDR
Experimental: as §1, §2, §3

CARD14-1 = test: Holdup assay, CARD14-1; type: binding, human
GRIP1-6 = test: Holdup assay, GRIP1-6; type: binding, human
CARD11-1 = test: Holdup assay, CARD11-1; type: binding, human
INADL-10 = test: Holdup assay, INADL-10; type: binding, human
MAGI2-5 = MAGI2-5 (Homo sapiens, UniProt Q86UL8); test: Holdup assay, MAGI2-5; type: binding
MAGI2-5, sequence (Q86UL8 whole entry): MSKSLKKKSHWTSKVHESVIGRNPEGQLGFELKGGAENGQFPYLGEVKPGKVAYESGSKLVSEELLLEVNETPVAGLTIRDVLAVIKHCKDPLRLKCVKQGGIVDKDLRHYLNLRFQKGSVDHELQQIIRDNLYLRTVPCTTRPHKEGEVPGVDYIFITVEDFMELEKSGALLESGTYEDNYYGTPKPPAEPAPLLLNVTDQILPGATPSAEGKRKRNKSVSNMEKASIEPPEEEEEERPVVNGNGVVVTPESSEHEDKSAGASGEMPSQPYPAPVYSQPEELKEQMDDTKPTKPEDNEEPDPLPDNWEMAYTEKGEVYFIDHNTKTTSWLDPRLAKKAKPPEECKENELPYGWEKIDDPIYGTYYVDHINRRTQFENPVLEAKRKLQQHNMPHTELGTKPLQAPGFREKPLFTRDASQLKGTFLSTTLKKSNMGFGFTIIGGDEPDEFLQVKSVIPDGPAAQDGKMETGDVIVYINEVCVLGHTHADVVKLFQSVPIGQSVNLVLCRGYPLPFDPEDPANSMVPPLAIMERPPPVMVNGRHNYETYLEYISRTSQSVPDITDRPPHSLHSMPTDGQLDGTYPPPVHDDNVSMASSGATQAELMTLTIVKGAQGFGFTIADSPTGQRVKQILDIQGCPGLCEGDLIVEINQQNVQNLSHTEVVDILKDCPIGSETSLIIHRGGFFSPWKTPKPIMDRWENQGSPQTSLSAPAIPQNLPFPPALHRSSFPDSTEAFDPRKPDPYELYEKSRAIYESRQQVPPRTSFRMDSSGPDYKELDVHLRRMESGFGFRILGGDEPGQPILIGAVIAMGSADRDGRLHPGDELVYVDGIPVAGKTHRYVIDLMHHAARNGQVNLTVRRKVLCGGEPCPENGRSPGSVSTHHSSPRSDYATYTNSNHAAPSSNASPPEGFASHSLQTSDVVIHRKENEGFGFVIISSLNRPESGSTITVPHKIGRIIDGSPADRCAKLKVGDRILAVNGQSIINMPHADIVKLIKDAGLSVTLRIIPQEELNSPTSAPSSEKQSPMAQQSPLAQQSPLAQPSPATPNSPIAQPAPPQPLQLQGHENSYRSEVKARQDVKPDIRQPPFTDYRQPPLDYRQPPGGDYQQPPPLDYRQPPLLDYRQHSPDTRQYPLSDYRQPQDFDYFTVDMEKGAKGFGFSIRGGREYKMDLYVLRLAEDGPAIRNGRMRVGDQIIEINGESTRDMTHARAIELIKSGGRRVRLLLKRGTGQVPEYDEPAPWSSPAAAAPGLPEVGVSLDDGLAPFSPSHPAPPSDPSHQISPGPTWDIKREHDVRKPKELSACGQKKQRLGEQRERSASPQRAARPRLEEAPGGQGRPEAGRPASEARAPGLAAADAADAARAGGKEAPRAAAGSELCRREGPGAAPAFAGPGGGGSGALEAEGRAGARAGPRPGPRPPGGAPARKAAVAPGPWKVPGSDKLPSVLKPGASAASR

DVL2-1 = test: Holdup assay, DVL2-1; type: binding, human
INADL-4 = test: Holdup assay, INADL-4; type: binding, human
DLG4 PDZ 3 = molecular target: T4, DLG4 PDZ 3 (Homo sapiens, UniProt P78352); test: Holdup assay, DLG4-3; type: binding
T4 construct: made in house; host or cells: E. coli
T4 sequence (P78352 313-393 limits assumed): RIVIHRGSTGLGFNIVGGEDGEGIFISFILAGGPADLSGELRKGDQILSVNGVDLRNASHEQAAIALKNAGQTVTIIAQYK
Experimental: as §1, §2, §3

GIPC2-1 = molecular target: T5, GIPC2-1 (Homo sapiens, UniProt Q8TF65); test: Holdup assay, GIPC2-1; type: binding
T5 sequence (Q8TF65 1-315): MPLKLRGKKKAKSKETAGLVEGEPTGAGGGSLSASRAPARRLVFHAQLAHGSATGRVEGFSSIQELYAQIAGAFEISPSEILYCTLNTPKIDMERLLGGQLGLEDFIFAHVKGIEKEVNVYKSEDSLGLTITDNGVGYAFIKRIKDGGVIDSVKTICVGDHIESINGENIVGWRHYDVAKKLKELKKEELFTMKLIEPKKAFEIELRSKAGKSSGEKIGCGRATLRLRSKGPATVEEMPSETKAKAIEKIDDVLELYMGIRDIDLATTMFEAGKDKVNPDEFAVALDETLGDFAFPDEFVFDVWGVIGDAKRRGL

SMILES: CC[C@H](C)[C@H](NC(=O)[C@H](CCC(N)=O)NC(=O)[C@@H](NC(=O)[C@H](Cc1c[nH]cn1)NC(=O)[C@H](CCC(N)=O)NC(=O)[C@H](CC(=O)O)NC(=O)[C@H](CCC(=O)O)NC(=O)[C@H](CC(=O)O)NC(=O)CCC(=O)NCCCOCCOCCOCCCNC(=O)CCCC[C@@H]1SC[C@@H]2NC(=O)N[C@@H]21)[C@@H](C)O)C(=O)N[C@H](C(=O)N[C@@H](CCCCN)C(=O)N[C@H](C(=O)O)C(C)C)[C@@H](C)O [PTEN_11]
- BI (LNX2-3): -0.164
- LogKD (LNX2-3): 3.519
- Kd (GORASP2-1): 48 µM
- BI (GORASP2-1): 0.403
- BI (APBA2-2): -0.01
- LogKD (APBA2-2): 3.519
- BI (DFNB31-2): -0.03
- LogKD (DFNB31-2): 3.519
- BI (FRMPD2-3): -0.046
- LogKD (FRMPD2-3): 3.519
- BI (DLG1 PDZ 2): 0.09
- BI (LIN7B-1): -0.046
- LogKD (LIN7B-1): 3.519
- BI (MAGI1 PDZ 2): 0.077
- BI (DLG2-2): 0.168
- BI (ARHGAP23-1): -0.109
- LogKD (ARHGAP23-1): 3.519
- BI (LIMK1-1): -0.066
- LogKD (LIMK1-1): 3.519
- BI (INTU-1): -0.089
- LogKD (INTU-1): 3.519
- BI (GRID2IP-1): -0.012
- LogKD (GRID2IP-1): 3.519
- BI (APBA3-1): -0.03
- LogKD (APBA3-1): 3.519
- BI (SDCBP PDZ 1): -0.001
- BI (CARD14-1): -0.077
- LogKD (CARD14-1): 3.519
- BI (GRIP1-6): 0.065
- LogKD (GRIP1-6): 3.519
- BI (CARD11-1): -0.016
- LogKD (CARD11-1): 3.519
- BI (INADL-10): 0.022
- LogKD (INADL-10): 3.519
- BI (MAGI2-5): 0.214
- Kd (MAGI2-5): 122 µM
- BI (DVL2-1): -0.008
- LogKD (DVL2-1): 3.519
- BI (INADL-4): -0.049
- LogKD (INADL-4): 3.519
- BI (DLG4 PDZ 3): -0.018

SMILES: CC[C@H](C)[C@H](NC(=O)[C@H](CCC(N)=O)NC(=O)[C@@H](NC(=O)[C@H](Cc1c[nH]cn1)NC(=O)[C@H](CCC(N)=O)NC(=O)[C@H](CC(=O)O)NC(=O)[C@H](CCC(=O)O)NC(=O)[C@H](CC(=O)O)NC(=O)CCC(=O)NCCCOCCOCCOCCCNC(=O)CCCC[C@@H]1SC[C@@H]2NC(=O)N[C@@H]21)[C@@H](C)O)C(=O)N[C@H](C(=O)N[C@@H](CCCCNC(C)=O)C(=O)N[C@H](C(=O)O)C(C)C)[C@@H](C)O [PTEN_Ac]
- Kd (GORASP2-1): 36.7 µM
- BI (GORASP2-1): 0.418
- BI (APBA2-2): -0.03
- LogKD (APBA2-2): 3.605
- BI (DFNB31-2): -0.091
- LogKD (DFNB31-2): 3.605
- BI (FRMPD2-3): -0.064
- LogKD (FRMPD2-3): 3.605
- Kd (DLG1 PDZ 2): 35.6 µM
- BI (DLG1 PDZ 2): 0.425
- BI (LIN7B-1): -0.004
- LogKD (LIN7B-1): 3.605
- BI (MAGI1 PDZ 2): 0.101
- LogKD (GIPC2-1): 3.605
- BI (DLG2-2): 0.329
- Kd (DLG2-2): 54.4 µM
- BI (ARHGAP23-1): -0.108
- LogKD (ARHGAP23-1): 3.605
- BI (LIMK1-1): -0.047
- LogKD (LIMK1-1): 3.605
- BI (INTU-1): 0.042
- LogKD (INTU-1): 3.605
- BI (GRID2IP-1): -0.067
- LogKD (GRID2IP-1): 3.605
- BI (APBA3-1): -0.113
- LogKD (APBA3-1): 3.605
- BI (SDCBP PDZ 1): -0.057
- BI (GRIP1-6): -0.056
- LogKD (GRIP1-6): 3.605
- BI (CARD11-1): -0.116
- LogKD (CARD11-1): 3.605
- BI (MAGI2-5): 0.148
- BI (INADL-4): -0.106
- LogKD (INADL-4): 3.605
- BI (DLG4 PDZ 3): -0.024

Reference: article PMC7774954, “Interactomic affinity profiling by holdup assay: Acetylation and distal residues impact the PDZome-binding specificity of PTEN phosphatase” (PLoS ONE, 2020)
